Test results: patent US8858995B2, “Methods and compositions for controlled delivery of phytochemical agents” (priority 2008, dated 2014)
Where two headings read alike, the source gives them in different places.

Assays:
[1] = system: B[a]P-induced DNA adducts
[2] = Lung and liver curcumin levels after subcutaneous implantation of curcumin matrices; assay type: in vivo, Sprague-Dawley rats
[3] = In vitro release of curcumin from PCL-121K:PEG-8K (65:35) implants; assay type: physicochemical
Method: Both solutions were then mixed together to prepare a homogenous solution of drug and polymers. The solvents were evaporated on a water bath maintained at 65° C. followed by overnight drying under vacuum at 65° C. to remove residual solvents to prepare an amorphous molecular dispersion of drug in polymer. The dried molten polymer was then extruded through silastic tubing mold (internal diameter 3.4 mm) attached to a syringe. After a few minutes, the cylindrical implants were removed from the tubing and excised into desired lengths (2.0 cm, 200 mg containing 40 mg drug) and stored at −20° C. under argon until used.
PBS was supplemented with BCS (10% v/v) to mimic extracellular fluid composition and to simulate the in vivo situation. Amber-colored vials (n=3) containing a 2-cm implant each were incubated at 37±0.5° C. in a reciprocating (150 rpm) shaker water bath (Julabo S W23, Seelbach, Germany), and the release medium was changed after every 24 h.

[4] = Tissue curcuminoid levels after coated implants (UPLC); assay type: in vivo, A/J mice; conditions: female, A/J, mouse, in vivo
Method: Briefly, liver and brain tissues (500 and 400 mg, respectively) from each animal were homogenized in 3 ml PBS (pH 7.4) containing 200 μl of 0.5 M sodium acetate, and extracted with ethyl acetate. After evaporation of the pooled extracts, the residue was reconstituted in 100 μl acetonitrile and analyzed by UPLC using Shimadzu UPLC system (Kyoto, Japan), with a Shim-Pack XR-ODS II reverse phase column (Shimadzu; 150×3.0 mm i.d., 2.2 μm).

[5] = In vitro release of curcumin from device for cervical insertion; assay type: physicochemical; conditions: after approximately 5 days in release medium; 18 days release period
Method: The medium was replaced daily and the amount of curcumin released from the compositions per day was measured spectrophotometrically against a standard curve and expressed as micrograms per day.

[6] = system: B[a]P-induced DNA adducts; remark: listed apart in the source
GSTM = GSTM levels in hepatic microsomes (Western blotting); assay type: in vivo, ACI rats; conditions: implant and dietary routes
Method: To evaluate the xenobiotic-metabolizing enzymes, liver samples from the animals (approximately 100 mg) were homogenized in 0.25 M sucrose buffer (pH 7.4) at 3000 rpm with Polytron. The homogenate was centrifuged at 3000 g for 20 min at 4° C. to separate the nuclear content, and the supernatant was then collected and again centrifuged at 11,000 g for 20 min at 4° C. to separate the mitochondria. The post-mitochondrial supernatant was then transferred to ultracentrifuge tubes and finally centrifuged at 100,000 g for 1 h at 4° C. to separate the microsomes. The pellet was suspended in 1 ml sucrose buffer, aliquoted and stored at −80° C. until use.
Microsomal proteins were subsequently quantified using a bicinchoninic acid (BCA) method and a BCA™ Protein Assay kit (Thermo Scientific, Rockford, Ill.) and were resolved by sodium dodecyl sulfatepolyacrylamide gel electrophoresis (SDS-PAGE) on a 10% gel. Protein bands were then transferred to polyvinylidene diflouride (PVDF) membrane, which was incubated with 5% non-fat dried milk in Tris-buffered-saline for 1 h at room temperature (25° C.) to block the non-specific binding sites. […] The bands were detected by enhanced chemiluminescence using Pierce® ECL Western-Blotting Substrate (Thermo Scientific, Rockford, Ill.) and quantified using VersaDoc Imaging System (BioRad Laboratories, Hercules, Calif.).

[7] = Effect of phytochemical agent load on in vitro release; assay type: physicochemical; conditions: curcumin 2, 5, 20% w/w, GTPs 1, 2.5, 5, 10% w/w
Method: The medium was replaced daily and the amount of curcumin released from each composition per day was measured spectrophotometrically against a standard curve and expressed as μg/day. A similar experiment was also performed to examine the effect of incorporating various amounts of GTPs into a biocompatible polymeric matrix on the in vitro release of the agents.

DBP-DNA adducts = assay: Dibenzo[a,I]pyrene (DBP)-DNA adducts in lung (32P-postlabeling); assay type: in vivo, A/J mice; conditions: two 1.5 cm coated implants; DBP implant; 3 weeks
Method: To assess the coated implants (i.e., where the compositions were in the form of coatings), in vivo studies were also performed. […] All groups of animals were also treated with dibenzo[a,I]pyrene (DBP) via polymeric implants (1-cm, 1.4 mm dia, 5% DBP load) at the same time. Implants were grafted subcutaneously, and animal were euthanized after 3 weeks. […] In both cases, animals were euthanized by CO2 asphyxiation and selected tissues (lung, liver and brain) were collected and stored at −80° C. until processing. Implants were also recovered, dried under vacuum and stored in amber vials under argon at 4° C. until analysis.
To analyze the formation of DNA adducts, DNA was isolated from lung tissue (200 mg) by treatment of the isolated crude nuclei with RNases and proteinase K, followed by extractions with phenol, phenol:Sevag and Sevag. DNA was recovered by ethanol precipitation and its concentration was measured spectrophotometrically considering 1 A260 equals 50 μg DNA. DNA adducts were analyzed by nuclease P1-mediated ^32P-postlabeling/TLC assay and expressed as adducts per 10^9 nucleotides.

[8] = curcumin implants, B[a]P implant 1 cm, 10 mg, 30 days post B[a]P
[9] = curcumin implants, sustained low dose B[a]P, 30 days
[10] = 1 cm PCL matrix with 20 mg curcumin, s.c., bolus B[a]P
[11] = dietary curcumin 400 ppm, bolus B[a]P
[12] = dietary curcumin 400 ppm, single i.p. B[a]P 50 mg/kg

COc1cc(/C=C/C(=O)CC(=O)/C=C/c2ccc(O)c(OC)c2)ccc1O [curcumin]
B[a]P-induced DNA adducts in liver and lung versus sham implant ([1]; 1 cm matrix 20% w/w curcumin, B[a]P implant, 30 days): inhibited the B[a]P-induced DNA adducts in both the liver and lung | inhibition of adducts, liver [1, 8]: 83% | inhibition of adducts, lung [1, 8]: 65% | DNA adduct level, liver [1, 9]: 4±0.7 adducts/10^9 nucleotides | DNA adduct level, lung [1, 9]: 9±5 adducts/10^9 nucleotides | concentration at 4 days ([2]; Sprague-Dawley, rat, liver, subcutaneous, 20 % w/w curcumin in two 2-cm polymeric matrices, implants 20% w/w, 4 days): ~40 ng/g | concentration at 7 days ([2]; Sprague-Dawley, rat, liver, subcutaneous, 20 % w/w curcumin in two 2-cm polymeric matrices, implants 20% w/w, 7 days): ~5 ng/g | concentration at 4 days ([2]; Sprague-Dawley, rat, lung, sc, 20 % w/w curcumin in two 2-cm polymeric matrices): ~15 ng/g | curcumin level in lung tissue ([2]; implants 20% w/w, after 7 days, maintained at 13 and 21 days): approximately 5 ng/g | curcumin level in liver tissue ([2]; implants 20% w/w, during the next 30 days): about 2.5 ng/g | curcumin release after 1 week [3]: approximately 200 μg/day | curcumin release after 31 days [3]: approximately 120 μg/day | curcumin release on day 2 [3]: approximately 390 μg | cumulative release after 1 month ([3]; 40 mg per implant): approximately 15 % of total agent load | curcumin release on day 1 ([3]; 2-cm implant, 40 mg): approximately 570 μg | concentration at 21 days [4]: 15 ng/g | amount of curcumin released per day from device [5]: decreased and approached lower steady-state levels | inhibition of B[a]P-induced DNA adducts, liver [6, 10]: 48% | inhibition of B[a]P-induced DNA adducts, lung [6, 10]: 17% | dose of curcumin delivered by the implant ([6]; bolus B[a]P study): approximately 80 μg/rat/day | DNA adduct level, liver [6, 11]: 74±110 adducts/10^9 nucleotides | DNA adduct level, lung [6, 11]: 65±53 adducts/10^9 nucleotides | inhibition of B[a]P-induced DNA adducts, liver [6, 12]: 83% | inhibition of B[a]P-induced DNA adducts, lung [6, 12]: 45% | GSTM levels (GSTM): not found to get modulated | amount released per day and total amount released versus amount incorporated [7]: varied proportionally | lung DBP-DNA adduct levels (DBP-DNA adducts): virtually no effect
